Results as given in patent US6017911A, “Pyridonecarboxylic acid derivatives and intermediates for the synthesis thereof” (Dainippon Pharmaceutical Co., Ltd., priority 1996, dated 2000).
Converted amounts (≈) assume the structure as drawn. Like-named read-outs stand apart in the source and are kept apart here.

Tests used:
[1] = system: Pseudomonas aeruginosa No 12; assay: In vitro antibacterial activity (MIC), Pseudomonas aeruginosa No 12; assay type: cell-based; conditions: NO12, read-out: Minimum inhibitory concentration (MIC)
[2] = system: Staphylococcus aureus 50774; assay: In vitro antibacterial activity (MIC), Staphylococcus aureus 50774; assay type: cell-based
[3] = system: Staphylococcus aureus 50774; assay: Effect on systemic infection in mice; assay type: in vivo, mice (male Std-ddy strain); conditions: 168 h; Staphylococcus aureus 50774 i.p. infection; oral, twice (immediately and 6 h after infection); survival 7 days after infection
Description: The effects (ED50; mg/kg) on systemic infection in mice were determined as follows: Male Std-ddy strain mice (weighing about 20 g) were infected with each of the pathogenic bacteria shown in Table 2 by administering 5×10^3 viable cells intraperitoneally to each mouse. Then, a suspension of each test compound in 0.4% carboxymethylcellulose was orally administered twice, i.e., immediately after infection and 6 hours after infection. Seven days after infection, the ED50 value was calculated from the survival rate of each mouse group by probit analysis.
As a reference compound, there was used enoxacin [1-ethyl-6-fluoro-1,4-dihydro-4-oxo-7-(1-piperazinyl-1,8-naphthyridine-3-carboxylic acid; hereinafter abbreviated as ENX] that is an excellent antibacterial agent currently on the market.
The test compounds shown in the following Tables 1 and 2 are identified by the respective numbers of the Examples which will be given later.

[4] = system: Staphylococcus aureus MS16405; assay: In vitro antibacterial activity (MIC), Staphylococcus aureus MS16405; assay type: cell-based
[5] = system: Escherichia coli NIHJ JC-2; assay: In vitro antibacterial activity (MIC), Escherichia coli NIHJ JC-2; assay type: cell-based; conditions: NIHJJC2, read-out: Minimum inhibitory concentration (MIC)
[6] = Staphylococcus aureus 50774, read-out: Minimum inhibitory concentration (MIC)
[7] = Staphylococcus aureus, MS16405, read-out: Minimum inhibitory concentration (MIC)
[8] = Staphylococcus aureus MS16405, read-out: Minimum inhibitory concentration (MIC)

Row | SMILES | MIC [1] | MIC [2, 6] | ED50 [3] | MIC [4, 7] | MIC [5] | MIC [4, 8] | MIC ([2]; Staphylococcus aureus, 50774, read-out: Minimum inhibitory concentration (MIC))
1 | COc1c(N2C[C@H](N)[C@H]3OCC[C@H]32)c(F)cc2c(=O)c(C(=O)O)cn(C3CC3)c12 (relative stereo) [Example 1, 7-[(1R*,5R*,8S*)-8-amino-2-oxa-6-azabicyclo[3.3.0]oct-6-yl]-1-cyclopropyl-6-fluoro-1,4-dihydro-8-methoxy-4-oxoquinoline-3-carboxylic acid] | 0.39 µg/mL (≈ 0.967 µM) | ≤ 0.003 µg/mL | 0.36 mg/kg | 0.39 µg/mL (≈ 0.967 µM) | 0.013 µg/mL (≈ 0.0322 µM) | – | –
2 | COc1c(N2C[C@H](N)[C@H]3OCCC[C@H]32)c(F)cc2c(=O)c(C(=O)O)cn(C3CC3)c12 (relative stereo) [Example 10] | 3.13 µg/mL (≈ 7.5 µM) | 0.013 µg/mL (≈ 0.0311 µM) | 0.465 mg/kg | 0.39 µg/mL (≈ 0.934 µM) | 0.1 µg/mL (≈ 0.24 µM) | – | –
3 | COc1c(N2C[C@@H](N)[C@H]3OC(C)C[C@H]32)c(F)cc2c(=O)c(C(=O)O)cn(C3CC3)c12 (relative stereo) [Example 40, 7-[(1R*,5R*,8R*)-8-amino-3-methyl-2-oxa-6-azabicyclo[3.3.0]oct-6-yl]-1-cyclopropyl-6-fluoro-1,4-dihydro-8-methoxy-4-oxoquinoline-3-carboxylic acid] | 3.13 µg/mL (≈ 7.5 µM) | 0.025 µg/mL (≈ 0.0599 µM) | – | – | 0.1 µg/mL (≈ 0.24 µM) | 1.56 µg/mL (≈ 3.74 µM) | –
4 | N#Cc1c(N2C[C@H](N)[C@H]3OCC[C@H]32)c(F)cc2c(=O)c(C(=O)O)cn(C3CC3)c12 (relative stereo) [Example 38] | 3.13 µg/mL (≈ 7.86 µM) | 0.1 µg/mL (≈ 0.251 µM) | – | – | 0.05 µg/mL (≈ 0.126 µM) | – | –
5 | COc1c(N2C[C@@H](N)[C@H]3OCC[C@H]32)c(F)cc2c(=O)c(C(=O)O)cn(C3CC3)c12 (relative stereo) [Example 23] | 0.78 µg/mL (≈ 1.93 µM) | ≤ 0.003 µg/mL | – | – | 0.025 µg/mL (≈ 0.062 µM) | 0.78 µg/mL (≈ 1.93 µM) | –
6 | Nc1c(F)c(N2C[C@@H](N)[C@H]3OCCC[C@H]32)c(F)c2c1c(=O)c(C(=O)O)cn2C1CC1 (relative stereo) [Example 21] | 0.39 µg/mL (≈ 0.928 µM) | ≤ 0.003 µg/mL | – | – | 0.013 µg/mL (≈ 0.0309 µM) | 0.78 µg/mL (≈ 1.86 µM) | –
7 | C#Cc1c(N2C[C@H](N)[C@H]3OCC[C@H]32)c(F)cc2c(=O)c(C(=O)O)cn(C3CC3)c12 (relative stereo) [Example 27] | 1.56 µg/mL (≈ 3.93 µM) | 0.025 µg/mL (≈ 0.0629 µM) | – | – | 0.025 µg/mL (≈ 0.0629 µM) | 1.56 µg/mL (≈ 3.93 µM) | –
8 | COc1c(N2C[C@@H](N)[C@H]3OCCC[C@H]32)c(F)c(N)c2c(=O)c(C(=O)O)cn(C3CC3)c12 (relative stereo) [Example 32] | 1.56 µg/mL (≈ 3.61 µM) | 0.013 µg/mL (≈ 0.0301 µM) | – | – | 0.1 µg/mL (≈ 0.231 µM) | 0.78 µg/mL (≈ 1.8 µM) | –
9 | Cc1c(F)c(N2C[C@H](N)[C@H]3OCC[C@H]32)nc2c1c(=O)c(C(=O)O)cn2-c1ccc(F)cc1F (relative stereo) [Example 39, 7-[(1R*,5R*,8S*)-8-amino-2-oxa-6-azabicyclo[3.3.0]oct-6-yl]-6-fluoro-1-(2,4-difluorophenyl)-1,4-dihydro-5-methyl-4-oxo-1,8-naphthyridine-3-carboxylic acid] | 0.78 µg/mL (≈ 1.69 µM) | 0.025 µg/mL (≈ 0.0543 µM) | – | – | 0.2 µg/mL (≈ 0.434 µM) | 3.13 µg/mL (≈ 6.8 µM) | –
10 | N[C@H]1CN(c2c(F)cc3c(=O)c(C(=O)O)cn(C4CC4)c3c2F)[C@@H]2CCO[C@@H]21 (relative stereo) [Example 18] | 0.39 µg/mL (≈ 0.996 µM) | 0.025 µg/mL (≈ 0.0639 µM) | 0.928 mg/kg | – | 0.006 µg/mL (≈ 0.0153 µM) | 1.56 µg/mL (≈ 3.99 µM) | –
11 | N[C@H]1CN(c2nc3c(cc2F)c(=O)c(C(=O)O)cn3-c2ccc(F)cc2F)[C@@H]2CCO[C@@H]21 (relative stereo) [Example 11] | 0.39 µg/mL (≈ 0.874 µM) | 0.013 µg/mL (≈ 0.0291 µM) | 0.579 mg/kg | – | 0.25 µg/mL (≈ 0.56 µM) | – | –
12 | N[C@H]1CN(c2c(F)cc3c(=O)c(C(=O)O)cn(C4CC4)c3c2Cl)[C@@H]2CCO[C@@H]21 (relative stereo) [Example 15] | 0.78 µg/mL (≈ 1.91 µM) | 0.025 µg/mL (≈ 0.0613 µM) | 1.12 mg/kg | – | 0.013 µg/mL (≈ 0.0319 µM) | 0.78 µg/mL (≈ 1.91 µM) | –
13 | COc1c(N2C[C@H](N)[C@H]3OCCC[C@H]32)c(F)c(N)c2c(=O)c(C(=O)O)cn(C3CC3)c12 (relative stereo) [Example 12] | 1.56 µg/mL (≈ 3.61 µM) | 0.013 µg/mL (≈ 0.0301 µM) | 0.715 mg/kg | – | 0.1 µg/mL (≈ 0.231 µM) | 0.39 µg/mL (≈ 0.902 µM) | –
14 | CN[C@H]1CN(c2c(F)cc3c(=O)c(C(=O)O)cn(C4CC4)c3c2OC)[C@@H]2CCO[C@H]12 (relative stereo) [Example 6] | 1.56 µg/mL (≈ 3.74 µM) | 0.025 µg/mL (≈ 0.0599 µM) | 0.292 mg/kg | – | 0.025 µg/mL (≈ 0.0599 µM) | 1.56 µg/mL (≈ 3.74 µM) | –
15 | CCn1cc(C(=O)O)c(=O)c2cc(F)c(N3CCNCC3)nc21 [ENX, reference compound] | 0.78 µg/mL (≈ 2.44 µM) | – | 9.89 mg/kg | 100 µg/mL (≈ 312 µM) | 0.05 µg/mL (≈ 0.156 µM) | – | 0.39 µg/mL (≈ 1.22 µM)
16 | COc1c(N2C[C@H](N)[C@H]3OCC[C@H]32)c(F)c(C)c2c(=O)c(C(=O)O)cn(C3CC3)c12 (relative stereo) [Example 5] | 0.78 µg/mL (≈ 1.87 µM) | ≤ 0.003 µg/mL | 0.257 mg/kg | – | 0.025 µg/mL (≈ 0.0599 µM) | 0.39 µg/mL (≈ 0.934 µM) | –
17 | N#Cc1c(N2C[C@@H](N)[C@H]3OCCC[C@H]32)c(F)cc2c(=O)c(C(=O)O)cn(C3CC3)c12 (relative stereo) [Example 34] | 1.56 µg/mL (≈ 3.78 µM) | 0.05 µg/mL (≈ 0.121 µM) | – | – | 0.05 µg/mL (≈ 0.121 µM) | 6.25 µg/mL (≈ 15.2 µM) | –
18 | C=Cc1c(N2C[C@H](N)[C@H]3OCC[C@H]32)c(F)cc2c(=O)c(C(=O)O)cn(C3CC3)c12 (relative stereo) [Example 33] | 3.13 µg/mL (≈ 7.84 µM) | 0.025 µg/mL (≈ 0.0626 µM) | – | – | 0.05 µg/mL (≈ 0.125 µM) | 1.56 µg/mL (≈ 3.91 µM) | –
19 | Cc1c(F)c(N2C[C@@H](N)[C@H]3OCCC[C@H]32)c(C#N)c2c1c(=O)c(C(=O)O)cn2C1CC1 (relative stereo) [Example 30] | 0.78 µg/mL (≈ 1.83 µM) | 0.013 µg/mL (≈ 0.0305 µM) | – | – | 0.05 µg/mL (≈ 0.117 µM) | 3.13 µg/mL (≈ 7.34 µM) | –
20 | N[C@H]1CN(c2cc3c(cc2F)c(=O)c(C(=O)O)cn3C2CC2)[C@@H]2CCO[C@@H]21 (relative stereo) [Example 26] | 0.39 µg/mL (≈ 1.04 µM) | 0.05 µg/mL (≈ 0.134 µM) | – | – | 0.013 µg/mL (≈ 0.0348 µM) | – | –
21 | N[C@H]1CN(c2nc3c(cc2F)c(=O)c(C(=O)O)cn3C2CC2)[C@@H]2CCO[C@@H]21 (relative stereo) [Example 22] | 0.39 µg/mL (≈ 1.04 µM) | 0.05 µg/mL (≈ 0.134 µM) | – | – | ≤ 0.003 µg/mL | – | –
22 | Cc1c(F)c(N2C[C@H](N)[C@H]3OCC[C@H]32)c(C)c2c1c(=O)c(C(=O)O)cn2C1CC1 (relative stereo) [Example 24] | 0.78 µg/mL (≈ 1.94 µM) | 0.013 µg/mL (≈ 0.0324 µM) | – | – | 0.025 µg/mL (≈ 0.0623 µM) | 1.56 µg/mL (≈ 3.89 µM) | –
23 | N[C@@H]1CN(c2nc3c(cc2F)c(=O)c(C(=O)O)cn3-c2ccc(F)cc2F)[C@@H]2CCO[C@H]12 (relative stereo) [Example 29] | 0.39 µg/mL (≈ 0.874 µM) | 0.025 µg/mL (≈ 0.056 µM) | – | – | 0.025 µg/mL (≈ 0.056 µM) | – | –
24 | N[C@@H]1CN(c2c(F)cc3c(=O)c(C(=O)O)cn(C4CC4)c3c2OC(F)F)[C@@H]2CCO[C@H]12 (relative stereo) [Example 37] | 3.13 µg/mL (≈ 7.12 µM) | 0.05 µg/mL (≈ 0.114 µM) | – | – | 0.1 µg/mL (≈ 0.228 µM) | 6.25 µg/mL (≈ 14.2 µM) | –
25 | CN[C@H]1CN(c2nc3c(cc2F)c(=O)c(C(=O)O)cn3-c2ccc(F)cc2F)[C@@H]2CCO[C@H]12 (relative stereo) [Example 17] | 0.78 µg/mL (≈ 1.69 µM) | 0.05 µg/mL (≈ 0.109 µM) | 0.78 mg/kg | – | 0.1 µg/mL (≈ 0.217 µM) | – | –
26 | CN[C@H]1CN(c2c(F)cc3c(=O)c(C(=O)O)cn(C4CC4)c3c2Cl)[C@@H]2CCO[C@H]12 (relative stereo) [Example 20] | 1.56 µg/mL (≈ 3.7 µM) | 0.1 µg/mL (≈ 0.237 µM) | – | – | 0.05 µg/mL (≈ 0.119 µM) | 3.13 µg/mL (≈ 7.42 µM) | –
27 | CN[C@@H]1CN(c2c(F)cc3c(=O)c(C(=O)O)cn(C4CC4)c3c2OC)[C@@H]2CCO[C@@H]21 (relative stereo) [Example 35] | 3.13 µg/mL (≈ 7.5 µM) | 0.025 µg/mL (≈ 0.0599 µM) | – | – | 0.1 µg/mL (≈ 0.24 µM) | 6.25 µg/mL (≈ 15 µM) | –
